Read-outs that look alike come from different tables or passages of the source.
Key:
HsGSK-3β = HsGSK-3β (Homo sapiens, UniProt P49841); experiment: Kinase-Glo assay, inhibition of human GSK-3β; type: biochemical; conditions: read-out: Mean IC50 (SD), HsGSK-3b; 3.2 μM BioGSP-2, 2 μM ATP, 90 minutes at 30°C
[1] = molecular target: LmajFGSK-3 (LmajGSK-3 short Y102F mutant) (Leishmania major, UniProt Q4QE15, Y102F); experiment: biochemical; type: biochemical, L. major
LinfGSK-3 short = LinfGSK-3 short (Leishmania infantum, UniProt A4HXQ3); experiment: biochemical; type: biochemical, L. infantum; conditions: for mode of inhibition of LinfGSK-3 short (velocity at different ATP concentrations): Fig. 3A
LmajGSK-3 short = LmajGSK-3 short (Leishmania major, UniProt Q4QE15); experiment: biochemical; design: species or system L. major
[2] = molecular target: LmajEGSK-3 (LmajGSK-3 short D105E mutant) (Leishmania major, UniProt Q4QE15, D105E); experiment: biochemical; type: biochemical, L. major
TbruGSK-3 short = TbruGSK-3 short (Trypanosoma brucei brucei, UniProt Q388M1); experiment: biochemical; type: biochemical, T. brucei
[3] = molecular target: LmajEFGSK-3 (LmajGSK-3 short Y102F and D105E double mutant) (Leishmania major, UniProt Q4QE15, D105E/Y102F); experiment: biochemical; design: species or system L. major
[4] = read-out: Mean IC50 (SD), LmajFGSK-3, Y102F mutant, 8.2 nM enzyme, 3.2 μM BioGSP-2, 2 μM ATP, 90 minutes at 30°C

Sequence of HsGSK-3β (P49841 whole entry): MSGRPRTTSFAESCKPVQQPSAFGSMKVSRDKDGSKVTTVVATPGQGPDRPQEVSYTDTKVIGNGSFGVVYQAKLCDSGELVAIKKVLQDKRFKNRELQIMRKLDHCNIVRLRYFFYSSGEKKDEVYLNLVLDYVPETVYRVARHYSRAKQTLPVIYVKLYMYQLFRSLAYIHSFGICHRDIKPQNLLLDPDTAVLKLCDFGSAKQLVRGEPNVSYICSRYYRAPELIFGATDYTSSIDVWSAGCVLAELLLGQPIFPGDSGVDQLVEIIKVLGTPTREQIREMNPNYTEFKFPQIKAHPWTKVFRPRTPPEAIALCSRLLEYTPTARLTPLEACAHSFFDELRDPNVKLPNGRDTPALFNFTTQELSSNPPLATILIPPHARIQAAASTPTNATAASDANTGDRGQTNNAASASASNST

## Cdk1/2 Inhibitor III
HsGSK-3β
  IC50: 210 nM
[1]; [4]
  IC50: 150 nM
LinfGSK-3 short
  mode of inhibition of LinfGSK-3 short (velocity at different ATP concentrations): ATP competitive

## Cn1cc(C2=C(c3cn(CCCN)c4ccccc34)C(=O)NC2=O)c2ccccc21 [Ro-31-7549]
HsGSK-3β
  IC50: 4 nM
[1]; [4]
  IC50: 1080 nM

## N#CCCc1ccc2c(c1)-c1[nH]c3ccc([N+](=O)[O-])cc3c1CC(=O)N2 [Alster-paullone, 2-cyanoethyl]
HsGSK-3β
  IC50: 20 nM
[1]; [4]
  IC50: 310 nM

## COc1ccc(CNC(=O)Nc2ncc([N+](=O)[O-])s2)cc1 [GSK-3β Inhibitor VIII]
LmajGSK-3 short; 8.2 nM enzyme, 3.2 μM BioGSP-2, 2 μM ATP, 90 minutes at 30°C
  Mean IC50 (SD), LmajGSK-3: no activity
[2]; D105E mutant, 8.2 nM enzyme, 3.2 μM BioGSP-2, 2 μM ATP, 90 minutes at 30°C
  Mean IC50 (SD), LmajEGSK-3: no activity
[1]; Y102F mutant, 8.2 nM enzyme, 3.2 μM BioGSP-2, 2 μM ATP, 90 minutes at 30°C
  Mean IC50 (SD), LmajFGSK-3: no activity
LinfGSK-3 short; 2.8 nM enzyme, 3.2 μM BioGSP-2, 2 μM ATP, 90 minutes at 30°C
  Mean IC50 (SD), LinfGSK-3: no activity

## O=C1Nc2ccc(S(=O)(=O)O)cc2C1=C1Nc2ccccc2C1=NO [Indirubin-3'-monoxime-5-sulphonic Acid]
HsGSK-3β
  IC50: 60 nM
[1]; [4]
  IC50: 930 nM

## O=C1Nc2ccc3ncsc3c2/C1=C/Nc1ccc(S(=O)(=O)Nc2ccccn2)cc1 [GW8510]
TbruGSK-3 short; read-out: IC50 value for TbruGSK-3 short
  IC50: 21 nM
HsGSK-3β
  IC50: 20 nM
[2]; relative to wild type LmajGSK-3 short
  effect of mutation D105E of LmajGSK-3 short on sensitivity to inhibition: ~2 fold
[1]; read-out: IC50 value for the LmajGSK-3 short Y102F mutant
  IC50: 93 nM
[1]; [4]
  IC50: 90 nM
LinfGSK-3 short
  mode of inhibition of LinfGSK-3 short (velocity at different ATP concentrations): ATP competitive
LinfGSK-3 short; read-out: IC50 value for LinfGSK-3 short
  IC50: 628 nM

## COc1ccc2c(c1)/C(=C/c1cnc[nH]1)C(=O)N2 [SU9516]
[3]
  IC50: 1290 nM
TbruGSK-3 short
  IC50: 590 nM
LmajGSK-3 short
  IC50: 3040 nM
[2]
  IC50: 3150 nM
[1]
  IC50: 1400 nM
LinfGSK-3 short
  IC50: 1870 nM

## NC1=NC(=O)/C(=C2\CCNC(=O)c3[nH]c(Br)cc32)N1 [Hymeni-aldisine, Stylissa dami-cornis, Hymenialdisine]
[3]
  IC50: 9250 nM
TbruGSK-3 short
  IC50: 3950 nM
LmajGSK-3 short
  IC50: 13100 nM
[2]
  IC50: 10400 nM
[1]
  IC50: 16100 nM
LinfGSK-3 short
  IC50: 18200 nM

## O=C1Nc2ccccc2/C1=C/c1cnc[nH]1 [Angio-genesis inhibitor]
HsGSK-3β
  IC50: 1620 nM
[1]; [4]
  IC50: 8470 nM
